Measurements: publication PMC6479814, “Structure-Based Design of Novel Benzimidazole Derivatives as Pin1 Inhibitors” (Molecules, 2019)
pIC50: −log10 of the molar value.

Key:
[1] = molecular target: T1, Pin1 (Homo sapiens, UniProt Q13526); assay: Pin1 inhibition, protease-coupled assay; format: biochemical; conditions: 10 °C; for inhibition at 10 µM: Pin1, compound at 10 μM; for pIC50: Pin1, protease-coupled assay
T1 construct: purchased Sino Biological Inc., Beijing, China
Experimental: To investigate the Pin1 inhibitory potency of all synthesized compounds, the inhibition ratio at 10 μM or IC50 of all synthesized compounds was determined using protease-coupled assay.
Pin1 inhibitory activities were measured at 10 °C by protease-coupled assay as reported previous. Suc-Ala-Glu-cis-Pro-Phe-4-nitroaniline (Bachem, Bubendorf, Switzerland) in 0.47 mol/L, LiCl/trifluoroethanol was used as the substrate. The assay buffer (860 μL of 35 mM HERES at pH 7.8), Pin1 (20 μL, Bought from Sino Biological Inc., Beijing, China) and target compounds (10 μL of varying comcentrations in DMSO) were pre-equilibtated in the cuvette at 10 °C for 30 min. Then, 150 uL of ice-cooled chymotrypsin (60 mg/mL in 0.001 M/HCl) was added and mixed immediately. Additional substrate (40 μL) was added to start the assay and the reaction was monitored by absorbance at 390 nm for 90 s. For each compound, four concentrations (10 μM, 3.3 μM, 1.1 μM, 0.37 μM) were chosen, and the assay was performed in duplicate. The data was analyzed by Graphpad Prism 6.0.

[2] = tested on: PC-3 cells; assay: In vitro anti-proliferative MTT assay; format: cell-based, human; conditions: for GI50: Homo sapiens, PC-3 cells, MTT, 96 h; for antiproliferative activity against human prostate cancer PC-3 cells: result in words
Experimental: As for Pin1 was overexpressed in human prostate cancer cells, the antiproliferative activity of these benzimidazole derivatives against PC-3 cells were further evaluated by MTT assay. Meanwhile, the polar surface area (PSA) of these compounds was calculated under the optimal conformation since PSA is the key indicator of membrane permeability.
The tested cells were plated in 96-well microtiter plates with a density of 2,000 cells/well and incubated in a humidified atmosphere with 5% CO2 at 37 °C for 24 h. The cells were then exposed to tested compounds of different concentrations in triplicate. After incubated for 96 h, 50 μL of 3-(4,5-dimethylthiazol-2-yl)-2,5-diphenyltetrazolium bromide (MTT) solution (2 mg/mL) was added to each well and incubated for an additional 4 h. Then the suspernatant was discarded and the fromazan was dissolved in 200 μL of dimethyl sulfoxide (DMSO). The plate was oscillated subtly at room temperature for 10 min before the absorbance was measured at 570 nm by a microplate reader. Cell inhibitory ratio was calculated with the following formula:Inhibitory Rate (%) = [(Acontrol − Atreated)/Acontrol] × 100%(1)
The GI50 was determined as the concentration that caused half inhibition of cell proliferation. All experiments were performed three times independently, and the results were reported presented as the mean.

T1 sequence (Q13526 whole entry): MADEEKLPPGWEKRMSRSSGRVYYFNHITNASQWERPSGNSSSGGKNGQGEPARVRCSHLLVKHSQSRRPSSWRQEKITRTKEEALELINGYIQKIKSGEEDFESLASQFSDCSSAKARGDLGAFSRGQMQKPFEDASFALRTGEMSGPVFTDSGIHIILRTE

Row | melting point | inhibition at 10 µM [1] | GI50 [2] | pIC50 [1] | SMILES | antiproliferative activity against human prostate cancer PC-3 cells [2]
1 | 128 to 130 °C | 28% | > 50 µM |  | O=C(O)/C=C/c1nc2ccccc2n1CCC(=O)N1CCCCC1 [Compound 6a, (E)-3-(1-(3-oxo-3-(piperidin-1-yl)propyl)-1H-benzo[d]imidazol-2-yl)acrylic acid] | 
2 | 207 to 209 °C | 27% | > 50 µM |  | O=C(O)/C=C/c1nc2ccccc2n1CCC(=O)N1CCOCC1 [Compound 6b, (E)-3-(1-(3-Morpholino-3-oxopropyl)-1H-benzo[d]imidazol-2-yl) acrylic acid] | 
3 | 228 to 230 °C | 46% | > 50 µM |  | O=C(O)/C=C/c1nc2ccccc2n1CCC(=O)Nc1ccccc1 [Compound 6c, (E)-3-(1-(3-Oxo-3-(phenylamino)propyl)-1H-benzo[d]imidazol-2-yl)acrylic acid] | 
4 | 221 to 222 °C | 75% | 17.4 µM | 5.78 | Cc1ccc(NC(=O)CCn2c(/C=C/C(=O)O)nc3ccccc32)cc1 [Compound 6d, (E)-3-(1-(3-Oxo-3-(p-tolylamino)propyl)-1H-benzo[d]imidazol-2-yl)acrylic acid] | moderate antiproliferative activity
5 | 215 to 217 °C | 48% | > 50 µM |  | COc1ccc(NC(=O)CCn2c(/C=C/C(=O)O)nc3ccccc32)cc1 [Compound 6e, (E)-3-(1-(3-((4-Methoxyphenyl)amino)-3-oxopropyl)-1H-benzo[d]imidazol-2-yl)acrylic acid] | 
6 | 158 to 160 °C | 54% | > 50 µM |  | O=C(O)/C=C/c1nc2ccccc2n1CCC(=O)Nc1ccc(Cl)cc1 [Compound 6f, (E)-3-(1-(3-((4-Chlorophenyl)amino)-3-oxopropyl)-1H-benzo[d]imidazol-2-yl)acrylic acid] | 
7 | 192 to 194 °C | 66% | 14.1 µM | 5.76 | O=C(O)/C=C/c1nc2ccccc2n1CCC(=O)Nc1ccc(Br)cc1 [Compound 6g, (E)-3-(1-(3-((4-Bromophenyl)amino)-3-oxopropyl)-1H-benzo[d]imidazol-2-yl)acrylic acid] | moderate antiproliferative activity
8 | 209 to 210 °C | 90% | 9.89 µM | 6.19 | O=C(O)/C=C/c1nc2ccccc2n1CCC(=O)Nc1cccc(Br)c1 [Compound 6h, (E)-3-(1-(3-((3-Bromophenyl)amino)-3-oxopropyl)-1H-benzo[d]imidazol-2-yl)acrylic acid] | moderate antiproliferative activity
9 | 203 to 204 °C | 60% | > 50 µM |  | COc1cc(NC(=O)CCn2c(/C=C/C(=O)O)nc3ccccc32)cc(OC)c1 [Compound 6i, (E)-3-(1-(3-((3,5-dimethoxyphenyl)amino)-3-oxopropyl)-1H-benzo[d]imidazol-2-yl)acrylic acid] | 
10 | 210 to 212 °C | 59% | > 50 µM |  | O=C(O)/C=C/c1nc2ccccc2n1CCC(=O)NCc1ccc(Br)cc1 [Compound 6j, (E)-3-(1-(3-((4-Bromobenzyl)amino)-3-oxopropyl)-1H-benzo[d]imidazol-2-yl)acrylic acid] | 
11 | 203 to 205 °C | 62% | > 50 µM |  | O=C(O)/C=C/c1nc2ccccc2n1CCC(=O)NCCc1ccc(Br)cc1 [Compound 6k, (E)-3-(1-(3-((4-Bromophenethyl)amino)-3-oxopropyl)-1H-benzo[d]imidazol-2-yl)acrylic acid] | 
12 | 203 to 205 °C | 42% | > 50 µM |  | COc1ccc(CNC(=O)CCn2c(/C=C/C(=O)O)nc3ccccc32)cc1 [Compound 6l, (E)-3-(1-(3-((4-Methoxybenzyl)amino)-3-oxopropyl)-1H-benzo[d]imidazol-2-yl)acrylic acid] | 
13 | 219 to 220 °C | 49% | > 50 µM |  | COc1ccc(CCNC(=O)CCn2c(/C=C/C(=O)O)nc3ccccc32)cc1 [Compound 6m, (E)-3-(1-(3-((4-Methoxyphenethyl)amino)-3-oxopropyl)-1H-benzo[d]imidazol-2-yl)acrylic acid] | 
14 | 152 to 154 °C | 71% | 20.3 µM | 5.73 | O=C(O)/C=C/c1nc2ccccc2n1CCC(=O)Nc1cc(Cl)cc(Cl)c1 [Compound 6n, (E)-3-(1-(3-((3,5-Dichlorophenyl)amino)-3-oxopropyl)-1H-benzo[d]imidazol-2-yl)acrylic acid] | moderate antiproliferative activity
15 | 275 to 278 °C | 84% | 11.1 µM | 6.01 | Cc1cc(C)c(NC(=O)CCn2c(/C=C/C(=O)O)nc3ccccc32)c(C)c1 [Compound 6o, (E)-3-(1-(3-((2,4,6-Trimethylphenyl)amino)-3-oxopropyl)-1H-benzo[d]imidazol-2-yl)acrylic acid] | moderate antiproliferative activity
16 | 66 to 68 °C | 60% | > 50 µM |  | Cc1ccc(NC(=O)CCn2c(CCC(=O)O)nc3ccccc32)cc1 [Compound 7a, 3-(1-(3-Oxo-3-(p-tolylamino)propyl)-1H-benzo[d]imidazol-2-yl)propanoic acid] | 
17 | 66 to 68 °C | 31% | > 50 µM |  | O=C(O)CCc1nc2ccccc2n1CCC(=O)Nc1ccc(Cl)cc1 [Compound 7b, 3-(1-(3-((4-Chlorophenyl)amino)-3-oxopropyl)-1H-benzo[d]imidazol-2-yl)propanoic acid] | 
18 | 222 to 224 °C | 60% | 28.6 µM |  | Cc1cc(C)c(NC(=O)CCn2c(CCC(=O)O)nc3ccccc32)c(C)c1 [Compound 7c, 3-(1-(3-(Mesitylamino)-3-oxopropyl)-1H-benzo[d]imidazol-2-yl)propanoic acid] | moderate antiproliferative activity
19 | 226 to 228 °C | 73% | > 50 µM |  | O=C(CCn1c(-c2nc(C(=O)O)cs2)nc2ccccc21)Nc1ccccc1 [Compound 13a, 2-(1-(3-Oxo-3-(phenylamino)propyl)-1H-benzo[d]imidazol-2-yl)thiazole-4-carboxylic acid] | 
20 | 210 to 212 °C | 87% | > 50 µM | 6.05 | O=C(CCn1c(-c2nc(C(=O)O)cs2)nc2ccccc21)Nc1cccc(Br)c1 [Compound 13b, 2-(1-(3-((3-Bromophenyl)amino)-3-oxopropyl)-1H-benzo[d]imidazol-2-yl)thiazole-4-carboxylic acid] | 
21 | 186 to 188 °C | 79% | > 50 µM |  | O=C(CCn1c(-c2nc(C(=O)O)cs2)nc2ccccc21)Nc1ccccc1Br [Compound 13c, 2-(1-(3-((2-Bbromophenyl)amino)-3-oxopropyl)-1H-benzo[d]imidazol-2-yl)thiazole-4-carboxylic acid] | 
22 | 223 to 225 °C | 75% | > 50 µM |  | COc1cccc(NC(=O)CCn2c(-c3nc(C(=O)O)cs3)nc3ccccc32)c1 [Compound 13d, 2-(1-(3-((3-Methoxyphenyl)amino)-3-oxopropyl)-1H-benzo[d]imidazol-2-yl)thiazole-4-carboxylic acid] | 
23 | 208 to 210 °C | 79% | > 50 µM |  | COc1cc(NC(=O)CCn2c(-c3nc(C(=O)O)cs3)nc3ccccc32)cc(OC)c1 [Compound 13e, 2-(1-(3-((3,5-Dimethoxyphenyl)amino)-3-oxopropyl)-1H-benzo[d]imidazol-2-yl)thiazole-4-carboxylic acid] | 
24 | 234 to 236 °C | 40% | > 50 µM |  | O=C(CCn1c(-c2nc(C(=O)O)cs2)nc2ccccc21)Nc1cccc([N+](=O)[O-])c1 [Compound 13f, 2-(1-(3-((3-Nitrophenyl)amino)-3-oxopropyl)-1H-benzo[d]imidazol-2-yl)thiazole-4-carboxylic acid] | 

Row | SMILES | melting point | inhibition at 10 µM [1] | GI50 [2] | pIC50 [1] | antiproliferative activity against human prostate cancer PC-3 cells [2]
25 | O=C1C=CC(=O)c2c(O)cccc21 [Juglone, reference compound] |  |  | 4.89 µM | 5.00 | 
